Key:
[1] = system: Firefly luciferase HCV replicon cells (3-1); assay: Replicon assay (firefly luciferase HCV replicon); type: cell-based; conditions: Hepatitis C virus, 72 h; Huh7-derived luciferase HCV replicon cells, 3 days culture with compound, Steady-Glo luminescence
Experimental: (§1) A construct was prepared in which a luciferase gene derived from firefly was introduced as a reporter gene in HCV-RNA to assay the number of copies of HCV-RNA. The luciferase gene was introduced in the form of fusing with neomycin-resistance gene directly below the IRES (Internal Ribosome Entry Site) of the HCV gene in accordance with the method of Krieger, et al. (J. Virol. 75:4614). After synthesizing this RNA in vitro, it was introduced into Huh7 cell by electroporation and isolated as G418-resistant clone. Firefly luciferase HCV replicon cells (3-1) were suspended in Dulbecco's MEM (Gibco cat. no. 10569-010) containing 5% fetal bovine serum (Hyclone cat. no. SH30071.03), inoculated into the wells of a 96-well plate at 5000 cells/well and then cultured overnight at 37° C. and 5% CO2. Approximately 20 hours later, the diluted test compound was added at 10 μl per well followed by culturing for another 3 days. Two series of assay plates were prepared, and the assay was carried out using a white plate for one series and a clear plate for the other series. Following completion of culturing, the white plate was used for the Steady-Glo Luciferase Assay System (Promega cat. no. E2520). Namely, after adding 100 μl of reagent per well, mixing by a pipette 3 to 4 times and then allowing to stand for 5 minutes, luminescence was measured with the 1450 MicroBeta TRILUX (Wallac). Values obtained in the absence of cell addition were used as background values and subtracted from all values to calculate the IC50 (50% inhibitory concentration) of the drug based on a value of 0% inhibition for the value in the absence of addition of test compound.

in vitro = type: cell-based; conditions: human; replicon cells, 3 days culture with compound, Cell Counting Kit 8, absorbance 450 nm; read-out: Cytotoxicity CC50
Experimental: as §1
The Cell Counting Kit 8 (Dojindo cat. no. CK04) was used to determine the cytotoxicity. Namely, 10 μl of Cell Counting Kit 8 were added to a clear plate and incubated for 30 to 60 minutes at 37° C. Absorbance at a wavelength of 450 nm and a control wavelength of 630 nm was measured with a 96-well plate reader. Values in the absence of cell addition were used as background values and subtracted from all values to calculate the CC50 (50% cell inhibitory concentration) of the drug based on a value of 0% inhibition for the value in the absence of addition of drug.

SMILES	IC50 [1]	CC50 (in vitro)
CCCCCCCC(=O)CCCCCC/C=C/[C@H](C(=O)NC(Cc1ccc(Cl)cc1)C(=O)O)[C@@](O)(CC(=O)O)C(=O)O (stereo partly shown) [Compound 34]	0.055 µM	> 1 µM
CCCCCCCC(=O)CCCCCC/C=C/[C@H](C(=O)NC(Cc1ccc([N+](=O)[O-])cc1)C(=O)O)[C@@](O)(CC(=O)O)C(=O)O (stereo partly shown) [Compound 35]	0.08 µM	> 1 µM
CCCCCCCC(=O)CCCCCC/C=C/[C@H](C(=O)N[C@@H](Cc1cccs1)C(=O)O)[C@@](O)(CC(=O)O)C(=O)O [Compound 36]	0.5 µM	> 1 µM
CCCCCCCC(=O)CCCCCC/C=C/[C@H](C(=O)N[C@@H](Cc1ccc(C(C)(C)C)cc1)C(=O)O)[C@@](O)(CC(=O)O)C(=O)O [Compound 37]	0.21 µM	> 1 µM
CCCCCCCC(=O)CCCCCC/C=C/[C@H](C(=O)N[C@@H](Cc1ccc(-c2cccc(Cl)c2)cc1)C(=O)O)[C@@](O)(CC(=O)O)C(=O)O [Compound 38]	0.024 µM	> 1 µM
CCCCCCCC(=O)CCCCCC/C=C/[C@H](C(=O)N[C@@H](Cc1ccc(Oc2cccc(Cl)c2)cc1)C(=O)O)[C@@](O)(CC(=O)O)C(=O)O [Compound 39]	0.02 µM	> 1 µM
CCCCCCCC(=O)CCCCCC/C=C/[C@H](C(=O)NC(Cc1ccc(OCCCC)cc1)C(=O)O)[C@@](O)(CC(=O)O)C(=O)O (stereo partly shown) [Compound 40]	0.001 µM	> 1 µM
CCCCCCCC(=O)CCCCCC/C=C/[C@H](C(=O)NC(Cc1ccc(OCCC)cc1)C(=O)O)[C@@](O)(CC(=O)O)C(=O)O (stereo partly shown) [Compound 41]	0.002 µM	> 1 µM
C=CCOc1ccc(CC(NC(=O)[C@@H](/C=C/CCCCCCC(=O)CCCCCCC)[C@@](O)(CC(=O)O)C(=O)O)C(=O)O)cc1 (stereo partly shown) [Compound 42]	0.001 µM	> 1 µM
CCCCCCCC(=O)CCCCCC/C=C/[C@H](C(=O)NC(Cc1ccc(OC)cc1)C(=O)O)[C@@](O)(CC(=O)O)C(=O)O (stereo partly shown) [Compound 43]	0.003 µM	> 1 µM
CCCCCC(=O)CCCCCCCC/C=C/[C@H](C(=O)N[C@@H](Cc1ccc(OCCC(C)C)cc1)C(=O)O)[C@@](O)(CC(=O)O)C(=O)O [Compound 44]	0.001 µM	> 1 µM
CCCCCCCCCC(=O)CCCC/C=C/[C@H](C(=O)N[C@@H](Cc1ccc(OCCC(C)C)cc1)C(=O)O)[C@@](O)(CC(=O)O)C(=O)O [Compound 45]	0.005 µM	> 1 µM
CCCC(=O)CCCCCC/C=C/[C@H](C(=O)N[C@@H](Cc1ccc(OCCC(C)C)cc1)C(=O)O)[C@@](O)(CC(=O)O)C(=O)O [Compound 46]	0.8 µM	> 5 µM
CC(C)CCOc1ccc(C[C@H](NC(=O)[C@@H](/C=C/CCCCCCC(=O)CCc2ccccc2)[C@@](O)(CC(=O)O)C(=O)O)C(=O)O)cc1 [Compound 47]	0.25 µM	> 1 µM
C=CCCCCCC(=O)CCCCCC/C=C/[C@H](C(=O)N[C@@H](Cc1ccc(OCCC(C)C)cc1)C(=O)O)[C@@](O)(CC(=O)O)C(=O)O [Compound 48]	0.003 µM	> 1 µM
CCCCCCCCC(=O)CCCCCC/C=C/[C@H](C(=O)N[C@@H](Cc1ccc(OCCC(C)C)cc1)C(=O)O)[C@@](O)(CC(=O)O)C(=O)O [Compound 49]	0.004 µM	> 1 µM
CC(C)CCCCC(=O)CCCCCC/C=C/[C@H](C(=O)N[C@@H](Cc1ccc(OCCC(C)C)cc1)C(=O)O)[C@](O)(CC(=O)O)C(=O)O [Compound 50]	0.004 µM	> 1 µM
CCCCCCC(=O)CCCCCC/C=C/[C@H](C(=O)N[C@@H](Cc1ccc(OCCC(C)C)cc1)C(=O)O)[C@](O)(CC(=O)O)C(=O)O [Compound 51]	0.017 µM	> 1 µM

SMILES	IC50 [1]	CC50 (in vitro)
CC(C)CCOc1ccc(C[C@H](NC(=O)[C@@H](/C=C/CCCCCCC(=O)CCC2CCCCC2)[C@](O)(CC(=O)O)C(=O)O)C(=O)O)cc1 [Compound 52]	0.024 µM	> 1 µM
CCCCCCCC(=O)CCCCCC/C=C/[C@H](C(=O)N[C@@H](Cc1ccc(Oc2ccc(C)cc2)cc1)C(=O)O)[C@@](O)(CC(=O)O)C(=O)O [Compound 53]	0.002 µM	> 1 µM
CCCCCCCC(=O)CCCCCC/C=C/[C@H](C(=O)N[C@@H](Cc1ccc(Oc2ccc(OC)cc2)cc1)C(=O)O)[C@@](O)(CC(=O)O)C(=O)O [Compound 54]	0.002 µM	> 1 µM
CCCCCCCC(=O)CCCCCC/C=C/[C@H](C(=O)N[C@@H](Cc1ccc(Oc2ccc(C(F)(F)F)cc2)cc1)C(=O)O)[C@@](O)(CC(=O)O)C(=O)O [Compound 55]	0.019 µM	> 1 µM
CCCCCCCC(=O)CCCCCC/C=C/[C@H](C(=O)N[C@@H](Cc1ccc(Oc2cccc(C)c2)cc1)C(=O)O)[C@@](O)(CC(=O)O)C(=O)O [Compound 56]	0.006 µM	> 1 µM
CCCCCCCC(=O)CCCCCC/C=C/[C@H](C(=O)N[C@@H](Cc1ccc(Oc2cccc(C(F)(F)F)c2)cc1)C(=O)O)[C@@](O)(CC(=O)O)C(=O)O [Compound 57]	0.011 µM	> 1 µM
CCCCCCCC(=O)CCCCCC/C=C/[C@H](C(=O)N[C@@H](Cc1ccc(-c2ccc(OC)cc2)cc1)C(=O)O)[C@@](O)(CC(=O)O)C(=O)O [Compound 58]	0.004 µM	> 1 µM
CCCCCCCC(=O)CCCCCC/C=C/[C@H](C(=O)N[C@@H](Cc1ccc(-c2ccc(C)cc2)cc1)C(=O)O)[C@@](O)(CC(=O)O)C(=O)O [Compound 59]	0.003 µM	> 1 µM
CCCCCCCC(=O)CCCCCC/C=C/[C@H](C(=O)N[C@@H](Cc1ccc(-c2ccc(C(F)(F)F)cc2)cc1)C(=O)O)[C@@](O)(CC(=O)O)C(=O)O [Compound 60]	0.008 µM	> 1 µM
CCCCCCCC(=O)CCCCCC/C=C/[C@H](C(=O)N[C@@H](Cc1ccc(-c2cccc(C)c2)cc1)C(=O)O)[C@@](O)(CC(=O)O)C(=O)O [Compound 61]	0.006 µM	> 1 µM
CCCCCCCC(=O)CCCCCC/C=C/[C@H](C(=O)N[C@@H](Cc1ccc(-c2cccc(OC)c2)cc1)C(=O)O)[C@@](O)(CC(=O)O)C(=O)O [Compound 62]	0.002 µM	> 1 µM
CCCCCCCC(=O)CCCCCC/C=C/[C@H](C(=O)N[C@@H](Cc1ccc(-c2cccc(C(F)(F)F)c2)cc1)C(=O)O)[C@@](O)(CC(=O)O)C(=O)O [Compound 63]	0.01 µM	> 1 µM
CCCCCCCC(=O)CCCCCC/C=C/[C@H](C(=O)N[C@@H](Cc1ccc(Oc2cccc(F)c2)cc1)C(=O)O)[C@@](O)(CC(=O)O)C(=O)O [Compound 64]	0.007 µM	> 1 µM
CCCCCCCC(=O)CCCCCC/C=C/[C@H](C(=O)N[C@@H](Cc1ccc(-c2ccccc2F)cc1)C(=O)O)[C@@](O)(CC(=O)O)C(=O)O [Compound 65]	0.002 µM	> 1 µM
CCCCCCCC(=O)CCCCCC/C=C/[C@H](C(=O)N[C@@H](Cc1ccc(-c2cccc(F)c2)cc1)C(=O)O)[C@@](O)(CC(=O)O)C(=O)O [Compound 66]	0.006 µM	> 1 µM
CCCCCCCC(=O)CCCCCC/C=C/[C@H](C(=O)N[C@@H](Cc1ccc(Oc2ccc(N(C)C)cc2)cc1)C(=O)O)[C@@](O)(CC(=O)O)C(=O)O [Compound 67]	0.004 µM	> 1 µM
CCCCCCCC(=O)CCCCCC/C=C/[C@H](C(=O)N[C@@H](Cc1ccc(-c2ccc(N(C)C)cc2)cc1)C(=O)O)[C@@](O)(CC(=O)O)C(=O)O [Compound 68]	0.002 µM	> 1 µM
